From PubChem BioAssay (NCI) come the findings set out here.

Molecules are shown by their SMILES.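 Where inhibition never reached the appropriate level, the endpoint shown equals the highest concentration tested. Otherwise, values were interpolated linearly from a five-concentration, 48-hour dose response in 96-well plates. The concentration for 50% growth inhibition is given as GI50. At the TGI there is no net growth.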 Where only a bound is given, the exact number is not on record here.

What all share (experiment): growth of human tumour cells (NCI), 48 h
The test system of assay [1] is SF-539 CNS.
Assay [2] relates to KM12 colon.
The subject of assay [3] is MDA-MB-231 breast.
Assay [4] has as its system LOX IMVI melanoma.
Assay [5] has as its system OVCAR-5 ovarian.
The subject of assay [6] is HCT-15 colon.
The subject of assay [7] is OVCAR-4 ovarian.
The test system of assay [8] is T-47D breast.
Assay [9] concerns MCF7 breast.
Assay [10] relates to HT29 colon.

Turning to `CCc1ccc(Oc2nccc(-c3c(-c4ccc(F)cc4)ncn3C3CCNCC3)n2)cc1`, the GI50 is 4.79 µM in assay [1]; 6.01 µM in assay [2]; 5.16 µM in assay [3]; 4.78 µM in assay [4]; 6.45 µM in assay [5]; 6.35 µM in assay [6]. Also, the GI50 in assay [7] is 5.02 µM; in assay [8], 4.3 µM; in assay [9] it was 4.39 µM; in [10], 3.84 µM. In addition, the TGI came out at 9.57 µM in assay [1]; 14.3 µM in [2]; 13.6 µM in assay [3]; 10.2 µM in assay [4]; 15.1 µM in assay [5]; 15.8 µM in assay [6]. The TGI in [7] came out at 13 µM; in assay [8], 11.6 µM; in [9], 8.37 µM; in assay [10], 8.15 µM.
Turning to `COc1ccc(Oc2nc(Nc3ccc(N4CCOCC4)cc3)ncc2NC(=O)Nc2cc(OC)cc(OC)c2)cc1`, the GI50 in assay [1] was 1.06 µM; in [2], 1.82 µM; in [3], 0.992 µM; in assay [4], 3.59 µM; in assay [5], 11.6 µM; in assay [6], 15.4 µM. Further, the GI50 was 2.91 µM in [7], 5.13 µM in [8], 4.97 µM in assay [9] and 1.42 µM in assay [10]. Also, the TGI is 4.69 µM in [1]; 15.3 µM in assay [2]; 3.33 µM in assay [3]; 12.6 µM in assay [4]; greater than 33.3 µM in [5]; greater than 33.3 µM in assay [6]. The TGI is 10.9 µM in assay [7], greater than 33.3 µM in [8], greater than 33.3 µM in assay [9] and 6.69 µM in assay [10].
As to `COC(=O)c1c2c(c(C)[n+]([O-])c1C)C(=O)C=C(NCc1ccc(Br)cc1)C2=O`, the GI50 was 0.72 µM in [1]; 0.171 µM in [2]; 0.3 µM in [3]; 0.07 µM in assay [4]; 1.33 µM in assay [5]; 0.167 µM in [6]. Besides, the GI50 in [7] is 0.181 µM; in assay [8], 0.141 µM; in assay [9], 0.255 µM; in assay [10] it was 0.339 µM. Also, the TGI came out at 2 µM in assay [1]; 1.81 µM in assay [2]; 3.82 µM in [3]; 1.62 µM in [4]; 2.83 µM in assay [5]; 1.95 µM in [6]. The TGI was 1.04 µM in assay [7], 2.09 µM in [8], 1.07 µM in assay [9] and greater than 100 µM in [10].
As for `O=[N+]([O-])c1ccc(Oc2cccc(C(F)(F)F)c2)c([N+](=O)[O-])c1`, the GI50 in assay [1] is 3.05 µM; in assay [2], 2.52 µM; in [3], 3.17 µM; in assay [4], 0.447 µM; in [5], 4.08 µM; in assay [6], 2.41 µM. The GI50 in [7] is 3 µM; in [8] it was 2.55 µM; in assay [9], 2.81 µM; in assay [10], 4.68 µM. Besides, the TGI in assay [1] turned out to be 11.5 µM; in assay [2], 6.73 µM; in assay [3], 10.2 µM; in assay [4], 10.8 µM; in assay [5] it was 17.6 µM; in [6], 10.3 µM. The TGI in [7] is 19.9 µM; in assay [8], 7.66 µM; in [9], 8.33 µM; in [10], 16.2 µM.
Turning to `Cc1ccc2nc3sc(=O)sc3nc2c1`, the TGI in assay [1] is 35.1 µM; in assay [2], 28.9 µM; in assay [3] it was 32.1 µM; in [4], 28.2 µM; in assay [5], 30.8 µM; in assay [6], 31.3 µM. For the same compound, the TGI in assay [7] is 26.8 µM; in [8], greater than 100 µM; in [9] it was 31.4 µM; in [10], 31.2 µM.
Take `Cc1cc(N2CCN(C)CC2)nc(N(CCNc2ccnc3cc(Cl)ccc23)Cc2ccco2)n1`: the GI50 in assay [1] was 1.68 µM; in assay [2] it was 3.48 µM; in [3] it was 2.46 µM; in assay [4] it was 1.77 µM; in [5], 5.89 µM; in [6] it was 2.69 µM. Further, the GI50 in [7] was 4.91 µM; in [8], 2.07 µM; in assay [9] it was 2.12 µM; in [10], 2.47 µM. The TGI in [1] was found to be 3.25 µM; in [2], 13.6 µM; in assay [3], 7.84 µM; in assay [4] it was 3.56 µM; in assay [5], 19.4 µM; in assay [6], 10.9 µM. The TGI in assay [7] was found to be 18.2 µM; in [8], 6.41 µM; in [9], 6.89 µM; in assay [10], 10.4 µM.
